# “And” between values parts separate entries of the source, which are not always exact repeats. Equal values may be shown once. “Also recorded” adds a separate entry of the source.
# How the values were obtained:
# [1] = system: inflammatory acne; assay: Randomized, controlled, rater-blinded split face/back trial of IR pre-treatment plus ALA-PDT vs ALA-PDT alone (Example 9); type: in vivo, human; conditions: for Change from Baseline in Lesion Counts, Closed comedones, Median / Change from Baseline in Lesion Counts, Nodules, Median / Change from Baseline in Lesion Counts, Open comedones, Median / Change from Baseline in Lesion Counts, Papules, Median / Change from Baseline in Lesion Counts, Pustules, Median / Change from Baseline in Lesion Counts, Total Noninflammatory lesions, Median: week 4; for Change from Baseline in Lesion Counts, Total Inflammatory lesions, Median: week 4 (reduction); for Clinical Global Severity Assessment at Week-4, Median: six-point scale, grade 0 clear to 5 very severe (Table 1)
# Description: One side was pre-treated for 15 minutes with radiant IR light emitting diode (LED) (970 nm), while the other side was used as control. ALA was then applied after which PDT LED (630 nm) was performed on the entire face or back surface. Blinded lesion counts and clinical global assessment of severity were performed based on digital photographs before and four weeks after the PDT procedure.
# Inclusion criteria included patients with skin type I to III according to the Fitzpatrick Classification System [^xxviii]. Exclusion criteria comprised patients taking cortisone (Prednisone), anticoagulant therapy, or any drug known to increase photosensitivity. In addition, during the 12 months preceding the study, patients were required not to have used isotretinoin (Accutane), or applied topical steroids on the site to be treated. Moreover, oral antibiotics use, laser or topical anti-acne medication at the to-be-treated site were not permitted for eight weeks prior to the study. Patients gave written informed consent to participate in this trial in compliance with the US Code of Federal Regulations dealing with the conduct of clinical studies (21 CFR including parts 50 and 56 concerning informed consent and IRB regulations). The study was conducted according to Good Clinical Practice Guidelines and the principles of the Declaration of Helsinki, and was approved by the Institutional Review Board Services (Div. 1373737 Toronto, Canada).
# Patients were assigned to a split face or split back group to allow for within-patient assessments of clinical effects. Assignment was based on the patient's problem area. One side was randomly (using a coin flip) assigned to receive IR pre-treatment and ALA-PDT, and the other ALA-PDT alone to serve as control. The IR pre-treatment consisted of a 15 minute exposure to radiant IR LED at 970 nm ([…] using the LumiPhase-R/IR™, OPUSMED Inc. Montreal, Canada) to reach peak H2O absorption inside-out temperature of 45° C. Papillary dermis temperature was monitored with a needle probe throughout the session and up to 40 minutes (Type-T thermocouple, Omega, Montreal, Canada). ALA (20% Levulan Kerastick, DUSA Pharmaceuticals, USA) was then applied on both sides for 60 minutes, after which PDT with LED at 630 nm (50 mW/cm^2, 70 J/cm^2) was performed on the entire face or back surface for a duration of 23 minutes (LumiPhase-R/B™, OPUSMED Inc. Montreal, Canada). No cooling method was used. Digital photographs (Canon Dual Flash EOS 10D, Canon, Tokyo, Japan with EX SIGMA 50 mm 1:2.8 macro lens, Sigma, Aizu, Japan) were taken prior to and four weeks after the procedure. Each photograph was taken maintaining identical ambient lighting, pose and camera angles.
# Acne lesion counts were performed before and four weeks after the PDT treatment. All types of inflammatory (papules, pustules, nodules) and noninflammatory (open and closed comedones) acne lesions were counted. Lesion counts were performed based on the digital photographs by two non-treating physicians who were blinded to the treatment regimen (IR-treated or control side) and to the timing of the photographs (baseline or post-treatment).
# The global severity of acne was assessed at the end of the study by the […] non-treating physicians, as described above, using a six-point rating scale (Table 1). Clinical success was defined by grades 0 (clear) or 1 (almost clear).
# Adverse reactions were monitored throughout the study. Signs of erythema, oedema, scaling/crusting, bronzing, textural changes, hyperpigmentation, and hypopigmentation were documented during the time period of the clinical trial.
# Cronbach's alpha was calculated to assess inter-rater reliability in assessments. Reliability was deemed acceptable if Cronbach alpha was […] allowing raters' assessments to be combined for analysis. The primary outcome variable was the percent change from baseline in inflammatory lesion count measured four weeks post-treatment. […]
# [2] = system: diffuse sebaceous gland hyperplasia; assay: Split-face radiant IR skin preparation prior to PDT, diffuse sebaceous gland hyperplasia (Example 4); type: in vivo, human
# Description: A PDT treatment was performed on the face of a patient suffering from diffuse sebaceous gland hyperplasia. They were complaining of redness exacerbated by exercise/effort. […] Facial lesions were distributed mainly on the forehead and cheeks. […] They applied only topical Metrogel. […] Also, comedones and papulo-pustules were present. The patient was skin phototype II (Fitzpatrick classification). Their parent had similar skin condition.
# Prior to PDT, radiant IR skin preparation was performed in only half of face (split face study). Then PDT was completed on the complete facial area. First, the face was washed with a mild soap and an acetone scrub was performed. A 970 nm LED source prototype emitting at 50 mW/cm2 in a CW mode was placed at 1.5 cm from the right side of face and left for 25 min. Right after split face irradiation, 5-aminolevilinic acid (Levulan™ Kerastick™) was applied to the treatment area and left for 90 min. The photosensitizer was then light activated by a 630 nm LED source emitting at 50 mW/cm^2 (LumiPhase-RB, Opusmed, Canada), until erythema was reached (20 min). This treatment was concluded by a 405 nm LED source emitting at 30 mW/cm^2 (LumiPhase-RB, Opusmed, Canada), for 5 min. […] Through a mechanism involving the opening of skin pores, IR radiant skin preparation enhanced drug penetration and absorption by the targeted structures (i.e. sebaceous glands).
structure (smiles),measurement,setting,value
"NCC(=O)CCC(=O)O [5-ALA, 5-aminolevulinic acid]","Change from Baseline in Lesion Counts, Closed comedones, Median",[1]; Control side (ALA-PDT alone),0.00%
same,"Change from Baseline in Lesion Counts, Nodules, Median",[1]; Control side (ALA-PDT alone),20.00%
same,"Change from Baseline in Lesion Counts, Open comedones, Median",[1]; Control side (ALA-PDT alone),0.00%
same,"Change from Baseline in Lesion Counts, Papules, Median",[1]; Control side (ALA-PDT alone),38.10%
same,"Change from Baseline in Lesion Counts, Pustules, Median",[1]; Control side (ALA-PDT alone),0.00%
same,"Change from Baseline in Lesion Counts, Total Noninflammatory lesions, Median",[1]; Control side (ALA-PDT alone),0.00%
same,"Change from Baseline in Lesion Counts, Total Inflammatory lesions, Median","[1]; Control side (ALA-PDT alone), listed as ALA",38% and 37.86%
same,"Clinical Global Severity Assessment at Week-4, Median",[1]; Control side,2
same,treatment-related adverse effects / tolerability,"[1]; IR pre-treatment + ALA-PDT and ALA-PDT alone, listed as ALA",No unusual treatment-related adverse effects were observed; also recorded: overall well tolerated
same,"Clinical Global Severity Assessment at Week-4, Median",[1]; IR-Treated side,1
same,"Change from Baseline in Lesion Counts, Closed comedones, Median",[1]; IR-Treated side,0.00%
same,"Change from Baseline in Lesion Counts, Nodules, Median",[1]; IR-Treated side,100.00%
same,"Change from Baseline in Lesion Counts, Open comedones, Median",[1]; IR-Treated side,0.00%
same,"Change from Baseline in Lesion Counts, Papules, Median",[1]; IR-Treated side,75.00%
same,"Change from Baseline in Lesion Counts, Pustules, Median",[1]; IR-Treated side,37.65%
same,"Change from Baseline in Lesion Counts, Total Noninflammatory lesions, Median",[1]; IR-Treated side,0.00%
same,"Change from Baseline in Lesion Counts, Total Inflammatory lesions, Median","[1]; IR-Treated side, listed as ALA",73% and 73.21%
same,clinical success rate (almost clear or clear categories),"[1]; IR-treated side, week-4",78%
same,additional benefit of IR-treated side in inflammatory lesion count reduction,"[1]; IR-treated vs control side, week-4",35%
same,clinical success rate (almost clear or clear categories),"[1]; control side, week-4",44%
same,time until slight erythema post-PDT disappeared,[1]; most patients,≤ 48 h
same,duration of acneiform folliculitis,[1]; two patients,3 to 4 days
same,time clearing was maintained post-treatment,[2]; especially on the radiant IR pre-treated side,up to 6 months
same,improvement of SH lesions,"[2]; other side, no IR preparation, PDT alone, single treatment",30%

# — patent US10632324B2, “Method for the treatment of skin tissues” (9127-4910 Quebec Inc., priority 2017, dated 2020)
